The structures appear in SMILES notation. Counter-ions that a name gives are not always drawn. Some results are limits rather than exact numbers.

A short description of this test: In vitro inhibition of calcium phosphate crystallization in human plasma (spectrophotometric assay). In kind it is biochemical. Particulars: 0-100 μM, 1.5 mM phosphate, 12.5 mM calcium, pH 7.4, absorbance 550 nm, slope 6-24 min, read-out: Relative Potency. How it is done:
The in vitro efficacy of the IP4-4,6 substituted derivatives (e.g., Compounds 1 to 53) of the invention on the inhibition of calcium phosphate crystallization in human plasma samples was evaluated according to a spectrophotometric assay previously described in the art (Ferrer M, et al., Sci Rep 2017; 7:6858, doi:10.1038/s41598-017-07203-x).
A 96-well plate was employed. Plasma was spiked (1 volume of the IP4-4,6 substituted derivatives of the invention per 19 volumes of plasma) with increasing concentrations of the derivatives in the range of 0-100 μM. Plasma was then centrifuged at 10,000 g at rt and subsequently mixed with a mixture of 5 mM hydrogen phosphate and 41.67 mM calcium to attain final concentrations of 1.5 mM phosphate and 12.5 mM calcium, respectively. All reagent solutions were filtered, and pH adjusted to 7.4.
Crystallization of calcium phosphate was monitored spectrophotometrically for 30 min at rt by measuring the increments in absorbance at 550 nm using the Biotek Powerwave XS Microplate spectrophotometer (BioTek Instruments, Inc., Winooski, VT, US). The plate was incubated at rt in an orbital shaker and absorbance measured every 3 min.
Plasma crystallization was assessed based on slope measurement in the linear range between 6 and 24 min from plots of increase in absorbance versus logarithm of time. The efficacy of different myo-inositol phosphates derivatives in preventing in vitro formation of calcium phosphate crystals was assessed in human plasma samples using the slopes obtained between 6- and 24-min. Inhibition of crystallization was measured by comparing the slopes of the control sample (blank plasma) with those of samples containing the inhibitor as shown below: […]
On to `COCc1cn(CCCCOC2C(OP(=O)(O)O)C(OCCCCn3cc(COC)nn3)C(OP(=O)(O)O)C(OP(=O)(O)O)C2OP(=O)(O)O)nn1` (stereo not drawn) [Compound 37, 4,6-O-bis(4-(4-(methoxymethyl)-1H-1,2,3-triazol-1-yl)butyl)-myo-inositol-1,2,3,5-tetrakis(phosphate) octasodium salt], for which the EC50 was 5 to 10 µM.

With `O=C(NCCCOC1C(OP(=O)(O)O)C(OCCCNC(=O)Nc2ccccc2)C(OP(=O)(O)O)C(OP(=O)(O)O)C1OP(=O)(O)O)Nc1ccccc1` (stereo not drawn) [Compound 46, 4,6-O-bis(3-(3-phenylureido)propyl)-myo-inositol-1,2,3,5-tetrakis(phosphate) octasodium salt], the EC50 lay within 5 to 10 µM.

In the case of `CC(=O)N1CCN(CCOC2C(OP(=O)(O)O)C(OCCN3CCN(C(C)=O)CC3)C(OP(=O)(O)O)C(OP(=O)(O)O)C2OP(=O)(O)O)CC1` (stereo not drawn) [Compound 34, 4,6-O-bis(2-(4-acetylpiperazin-1-yl)ethyl)-myo-inositol-1,2,3,5-tetrakis(phosphate) octasodium salt], the EC50 was 5 to 10 µM.

With `COCCCCCCn1cc(COC2C(OP(=O)(O)O)C(OCc3cn(CCCCCCOC)nn3)C(OP(=O)(O)O)C(OP(=O)(O)O)C2OP(=O)(O)O)nn1` (stereo not drawn) [Compound 33, 4,6-O-bis((1-(6-methoxyhexyl)-1H-1,2,3-triazol-4-yl)methyl)-myo-inositol-1,2,3,5-tetrakis(phosphate) octasodium salt], the EC50 lay in the range of 5 to 10 µM.

Take `O=P(O)(O)OC1C(OCCC2CC2)C(OP(=O)(O)O)C(OP(=O)(O)O)C(OP(=O)(O)O)C1OCCC1CC1` (stereo not drawn) [Compound 28, 4,6-O-bis(2-cyclopropylethyl)-myo-inositol-1,2,3,5-tetrakis(phosphate) octasodium salt]: the EC50 is at most 5 µM.

Regarding `CCCCCCCOC1C(OP(=O)(O)O)C(OCCCCCCC)C(OP(=O)(O)O)C(OP(=O)(O)O)C1OP(=O)(O)O` (stereo not drawn) [Compound 5, 4,6-O-diheptyl-myo-inositol-1,2,3,5-tetrakis(phosphate) octasodium salt], the EC50 is at most 5 µM.

As for `O=P(O)(O)O[C@@H]1[C@@H](OCCC2CCCC2)[C@H](OP(=O)(O)O)[C@H](OP(=O)(O)O)[C@H](OP(=O)(O)O)[C@H]1OCCC1CCCC1` [Compound 29, 4,6-O-bis(2-cyclopentylethyl)-myo-inositol-1,2,3,5-tetrakis(phosphate) octasodium salt], the EC50 was at most 5 µM.

As for `O=C(O)CCc1cn(CCCOC2C(OP(=O)(O)O)C(OCCCn3cc(CCC(=O)O)nn3)C(OP(=O)(O)O)C(OP(=O)(O)O)C2OP(=O)(O)O)nn1` (stereo not drawn) [Compound 35, 4,6-O-bis(3-(4-(2-carboxyethyl)-1H-1,2,3-triazol-1-yl)propyl)-myo-inositol-1,2,3,5-tetrakis(phosphate) decasodium salt], the EC50 was at most 5 µM.

As for `CCCCCOC1C(OP(O)(O)=S)C(OCCCCC)C(OP(O)(O)=S)C(OP(O)(O)=S)C1OP(O)(O)=S` (stereo not drawn) [Compound 50, 4,6-O-dipentyl-myo-inositol-1,2,3,5-tetrakis(thiophosphate) octasodium salt], the EC50 was above 10 µM.

With `O=C(O)CCCCCCCCCCOC1C(OP(=O)(O)O)C(OCCCCCCCCCCC(=O)O)C(OP(=O)(O)O)C(OP(=O)(O)O)C1OP(=O)(O)O` (stereo not drawn) [Compound 19, 4,6-O-bis(10-carboxydecyl)-myo-inositol-1,2,3,5-tetrakis(phosphate) decasodium salt], the EC50 is above 10 µM.

Turning to `COCCCCCOC1C(OP(O)(O)=S)C(OCCCCCOC)C(OP(O)(O)=S)C(OP(O)(O)=S)C1OP(O)(O)=S` (stereo not drawn) [Compound 51, 4,6-O-bis(5-Methoxypentyl)-myo-inositol-1,2,3,5-tetrakis(thiophosphate) octasodium salt], the EC50 was above 10 µM.

Take `COCc1cn(CCCCCOC2C(OP(=O)(O)O)C(OCCCCCn3cc(COC)nn3)C(OP(=O)(O)O)C(OP(=O)(O)O)C2OP(=O)(O)O)nn1` (stereo not drawn) [Compound 38, 4,6-O-bis(5-(4-(methoxymethyl)-1H-1,2,3-triazol-1-yl)pentyl)-myo-inositol-1,2,3,5-tetrakis(phosphate) octasodium salt]: the EC50 was at most 5 µM.

These data come from patent US20240109924A1, “IP4-4,6 SUBSTITUTED DERIVATIVE COMPOUNDS” (SANIFIT THERAPEUTICS, S.A., priority 2021, published 2024).
